# “Also recorded” adds a separate entry of the source. Residues, ends and D or L forms follow the SMILES beside them.
# Tests used:
# MPO [1] = molecular target: T1, MPO (Homo sapiens, UniProt P05164); settings: reported, order of magnitude; cited from earlier work
# T1 sequence (P05164 49-745): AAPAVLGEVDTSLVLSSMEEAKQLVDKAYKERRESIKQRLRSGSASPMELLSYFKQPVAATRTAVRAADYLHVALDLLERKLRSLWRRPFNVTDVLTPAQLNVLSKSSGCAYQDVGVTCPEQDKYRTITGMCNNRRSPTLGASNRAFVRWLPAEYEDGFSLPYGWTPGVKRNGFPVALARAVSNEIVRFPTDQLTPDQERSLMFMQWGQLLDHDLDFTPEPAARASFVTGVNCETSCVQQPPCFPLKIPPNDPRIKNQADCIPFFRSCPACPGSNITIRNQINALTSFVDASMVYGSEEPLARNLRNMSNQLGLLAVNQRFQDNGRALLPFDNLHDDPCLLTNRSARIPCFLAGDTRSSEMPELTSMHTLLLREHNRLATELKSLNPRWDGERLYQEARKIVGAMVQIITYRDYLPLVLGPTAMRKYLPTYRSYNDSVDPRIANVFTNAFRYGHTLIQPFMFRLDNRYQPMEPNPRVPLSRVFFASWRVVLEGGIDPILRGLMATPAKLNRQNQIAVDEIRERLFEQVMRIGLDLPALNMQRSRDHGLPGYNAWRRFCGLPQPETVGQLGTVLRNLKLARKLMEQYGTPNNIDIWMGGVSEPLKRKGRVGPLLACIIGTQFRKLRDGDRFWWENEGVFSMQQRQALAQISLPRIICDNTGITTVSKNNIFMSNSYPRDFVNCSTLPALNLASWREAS
# MPO [2] = molecular target: T1, MPO; experiment: MPO-mediated LDL oxidation (conjugated diene formation, 234 nm); assay type: biochemical; parameters: purchased Lee Biosolutions (St. Louis, Mo.); settings: 25 μM; for MPO/H2O2/nitrite-mediated LDL oxidation (in words): H2O2 100 μM, NaNO2 100 μM; for MPO/H2O2-mediated LDL oxidation in the absence of nitrite (in words): without NaNO2
# Procedure: MPO-mediated oxidation of LDL. […] LDL oxidation was monitored at 234 nm at room temperature on a HP UV/VIS spectrometer. Absorbance traces represent the average of duplicate experiments.
# MPO-mediated LDL Oxidation. […] Rates of LDL oxidation were monitored at room temperature at 234 nm, the wavelength maximum for conjugated dienes.
# MPO-mediated LDL Conjugated Diene Formation: Reaction mixtures contained LDL (0.15 mg/mL), NaNO2 (100 μM), H2O2 (100 μM), MPO (20 nM) and increasing concentrations of KYC or equimolar concentrations of various compounds in a phosphate buffer (100 mM, pH 7.4) containing DTPA (100 μM). Rates of LDL conjugated diene formation were determined by following changes in absorbance at 234 nm, the wavelength maximum for conjugated dienes, on a UV-Vis spectrophotometer (Agilent Model 8453) at room temperature.
# MPO [3] = molecular target: T1, MPO; experiment: MPO-catalyzed HOCl production (taurine/TMB assay); assay type: biochemical; parameters: purchased Lee Biosolutions (St. Louis, Mo.); settings: for Dose-dependent effect on MPO-catalyzed HOCl production (in words): increasing concentrations, FIG. 14C/14D; for Effect on MPO HOCl production at equimolar concentration (in words): 12.5 μM
# Procedure: MPO-mediated HOCl Production. MPO (20 nM) was incubated with H2O2 (50 μM), NaCl (150 mM), taurine (5 mM) and increasing concentrations of KYC in phosphate buffer (100 mM, pH 7.4) which also contained diethylene triamine pentaacetic acid (DTPA, 100 μM) to prevent non-specific, divalent metal cation oxidation for 30 min. Reactions were halted by addition of catalase. Chlorotaurine was quantified using the 3,3-,5,5-tetramethylbenzidine (TMB) assay. Briefly, 400 μL of reaction solution was mixed with 100 μL of 2 mM TMB, 100 μM NaI containing 10% dimethylformamide (DMF) in 400 mM acetate buffer (pH 5.4). After 5 min, absorbance (650 nm) was recorded on a UV/Vis spectrophotometer (Agilent Model 8453).
# MPO-catalyzed HOCl Production: MPO (20 nM) was incubated with H2O2 (50 μM), NaCl (150 mM), taurine (5 mM) and increasing concentrations of KYC in a phosphate buffer (100 mM, pH 7.4) containing diethylene triamine pentaacetic acid (DTPA, 100 μM) to prevent non-specific, divalent metal cation oxidation for 30 min. Reactions were halted by addition of catalase (2,000 units/mL). Chlorotaurine was quantified using the TMB assay (66). Briefly, 400 μL of reaction solution was mixed with 100 μL of 2 mM TMB, 100 μM NaI containing 10% dimethylformamide (DMF) in 400 mM acetate buffer (pH 5.4). After 5 min, absorbance (650 nm) was recorded on a UV/Vis spectrophotometer (Agilent Model 8453).
# SS/Mcw rat hearts = experiment: Ischemia/reperfusion injury in isolated perfused hearts; settings: FIG. 5B
# Description: Ischemia/Reperfusion (I/R) Injury in Isolated Hearts. Rats used in this study received humane care in compliance with the Guide for the Care and Use of Laboratory Animals, by the National Research Council. Rats were maintained on a low salt (0.4% NaCl) diet with unlimited access to water. Environmental influences were minimized by maintaining rats in identical housing conditions. Dahl S (SS/Mcw male rats at 8 weeks of age were used for this study.
# Modified Krebs-Henseleit bicarbonate buffer was prepared containing the following components (in mM): 118.5 NaCl, 25.0 NaHCO3, 4.8 KCl, 1.2 MgSO4.6H2O, and 1.2 KH2PO4 (pH 7.4 when gassed with 95% O2-5% CO2) in which the calcium content was 1.8. Glucose (11.1 mM) was added to the perfusate. Before use, all perfusion fluids were filtered through cellulose acetate membranes with a pore size of 5 μm. To this perfusate, drugs (KAA, KYC) were added as needed. Animals were weighed, and heparin was administered intraperitoneally based on weight (150 IU/kg). Anesthesia was induced with pentobarbital sodium (30 mg/kg ip). […] Left ventricular pressure (LVP) was measured isovolumetrically with a transducer connected to a thin, saline-filled latex balloon inserted into the left ventricle through the mitral valve from an incision in the left atrium. […]
# [4] = Solubility in aqueous buffers; assay type: physicochemical
molecule,measurement,setting,value
"N[C@@H](CCC(=O)N[C@@H](CS)C(=O)NCC(=O)O)C(=O)O [GSH, glutathione]",Rate of reaction with MPO/H2O2 systems,MPO [1],10 to 100 M⁻¹ s⁻¹
same,MPO/H2O2/nitrite-mediated LDL oxidation (in words),MPO [2],ineffective
same,MPO/H2O2-mediated LDL oxidation in the absence of nitrite (in words),MPO [2],inhibited; also recorded: did not increase LDL oxidation
"CC(=O)N[C@@H](CCCCN)C(=O)N[C@@H](Cc1ccccc1)C(=O)N[C@@H](CS)C(N)=O [KFC, N-acetyl Lysylphenylalanylcysteine amid] (Ac-Lys-Phe-Cys-NH2)",MPO/H2O2/nitrite-mediated LDL oxidation (in words),MPO [2],"increased the lag phase and delayed, but did not totally inhibit"
same,Dose-dependent effect on MPO-catalyzed HOCl production (in words),MPO [3],weaker inhibitor
CC(=O)N[C@@H](CCCCN)C(=O)N[C@@H](Cc1c[nH]c2ccccc12)C(=O)N[C@@H](CS)C(N)=O [KWC] (Ac-Lys-Trp-Cys-NH2),Cardioprotection in SS/Mcw rat hearts (in words),SS/Mcw rat hearts,increase cardioprotection
"N[C@@H](Cc1c[nH]c2ccccc12)C(=O)O [Trp, tryptophan]",MPO/H2O2/nitrite-mediated LDL oxidation (in words),MPO [2],did not inhibit but actually enhanced
same,MPO/H2O2-mediated LDL oxidation in the absence of nitrite (in words),MPO [2],increased
same,Effect on MPO HOCl production at equimolar concentration (in words),MPO [3],effective inhibitor
"N[C@@H](Cc1ccc(O)cc1)C(=O)O [Tyr, tyrosine]",MPO/H2O2/nitrite-mediated LDL oxidation (in words),MPO [2],accelerated and enhanced
same,MPO/H2O2-mediated LDL oxidation in the absence of nitrite (in words),MPO [2],increased
same,Effect on MPO HOCl production at equimolar concentration (in words),MPO [3],"little, if any effect"
same,Effect on MPO HOCl production at equimolar concentration (in words),MPO [3]; listed as Tyrosine,little if any effect
"N[C@@H](Cc1ccc(O)cc1)C(=O)N[C@@H](CS)C(=O)O [YC, reference compound] (H-Tyr-Cys-OH; N-terminus and C-terminus assumed)",Solubility in water / aqueous buffers (in words),[4],difficult to dissolve in aqueous buffers
N-acetyl Lysyltyrosylcyeteine amide [KYS],MPO/H2O2/nitrite-mediated LDL oxidation (in words),MPO [2],accelerated LDL oxidation
same,Dose-dependent effect on MPO-catalyzed HOCl production (in words),MPO [3],failed to inhibit; also recorded: not an inhibitor

# — US8937039B2, “Peptide-based peroxidase inhibitors and methods of using same” (The Medical College of Wisconsin, Inc., priority 2009, dated 2015)
